Laboratory results taken from patent US6696454B2, “Inhibitors of spermidine synthase for the treatment of osteoarthritis and cartilage rehabilitation” (Quark Biotech, Inc., priority 2000, dated 2004).

Assays:
[1] = test system: HMSC; assay: Differentiation marker expression in HMSC treated with cytokines/growth factors; type: cell-based, human
Experimental: 1.1. HMSC—Normal adult articular cartilage progenitor cells were obtained from human cartilage. The cartilage was dissected and cultured in fresh DMEM medium supplemented with 10% FCS, L-glutamine and antibiotics. Two weeks after the cultivation of dissected cartilage, the remaining pieces were removed and the attached cells were used.
(§1) A series of in vitro experiments using HMSC was conducted. The cells were exposed to a panel of treatments which cause either chondrogenic (e.g., IGF-1) or osteogenic and angiogenic (e.g., IL1 and FGF-2) responses. Two rounds of in vitro experiments were performed. Initially, a calibration experiment was carried out in order to determine the time/dose kinetics of the cellular response to the stimuli. Based on this study, a large-scale experiment was performed from which RNA was prepared and used in the course of the gene expression profiling experiments.
In order to validate the differentiation response of the HMSC to the various stimuli, cells exposed to different treatments (Table 1) were tested for the expression of markers specific for osteoblastic and chondroblastic lineages by immunohistochemistry and staining procedures. To optimize the response of HMSC to differentiation treatment, it was studied on cells grown at varying density (sparse and confluent).

[2] = test system: cell proliferation; conditions: cell culture; cited from earlier work
[3] = molecular target: T1, spermidine synthase (Homo sapiens, UniProt P19623); conditions: variety of mammalian cells exposed to racemic AdoDATO; cited from earlier work
T1 construct: host or cells: a variety of mammalian cells (endogenous enzyme)
T1 sequence (P19623 1-302): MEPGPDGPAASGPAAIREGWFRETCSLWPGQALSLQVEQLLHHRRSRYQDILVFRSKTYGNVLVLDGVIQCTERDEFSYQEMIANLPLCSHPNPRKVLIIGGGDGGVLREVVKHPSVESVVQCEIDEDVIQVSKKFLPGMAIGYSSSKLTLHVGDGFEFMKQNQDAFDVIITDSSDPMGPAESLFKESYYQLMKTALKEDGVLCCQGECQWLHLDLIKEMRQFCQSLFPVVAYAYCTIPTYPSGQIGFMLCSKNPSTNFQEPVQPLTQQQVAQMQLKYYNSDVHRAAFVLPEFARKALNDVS

[4] = test system: spermidine synthase; assay: Gene expression profiling of treated HMSC by cDNA microarray hybridization; type: cell-based, human; conditions: HMSC treated with FGF-2
Experimental: as §1
cDNA probes were synthesized from 1 μg of polyA RNA derived from every sample using reverse transcriptase (Superscript, Gibco-BRL) and 18-mer oligo-dT primer. Cy3-dCTP (Amersham) or Cy5-dCTP (Amersham) were incorporated during the RT reaction, to label the cDNA. Hybridization, subsequent scanning, and visualization were performed as previously described (Schena, M. et al. (1996) Proc Natl Acad Sci USA 93, 10614-10619). The quality control of hybridizations was performed according to applicant's methods.
Probe 2 in all hybridizations was an identical probe comprised of a pool of 0 time point RNA extractions (Table 4, Common control). This served as a common normalizing probe and allowed us to compare results from different hybridizations in formal statistical analysis. […]

[5] = test system: mouse alveolar macrophages; conditions: cited from earlier work; for fusion of macrophages: 1α,25(OH)2D3-induced; for enhanced synthesis of proteins induced by 1α,25(OH)2D3: 9 of the 14 induced proteins
[6] = test system: spermidine synthase; conditions: cited from earlier work
[7] = molecular target: T2, alkaline phosphatase (Homo sapiens, UniProt P05186); conditions: cited from earlier work
T2 construct: alkaline phosphatase produced from cartilage
T2 sequence (P05186 18-501): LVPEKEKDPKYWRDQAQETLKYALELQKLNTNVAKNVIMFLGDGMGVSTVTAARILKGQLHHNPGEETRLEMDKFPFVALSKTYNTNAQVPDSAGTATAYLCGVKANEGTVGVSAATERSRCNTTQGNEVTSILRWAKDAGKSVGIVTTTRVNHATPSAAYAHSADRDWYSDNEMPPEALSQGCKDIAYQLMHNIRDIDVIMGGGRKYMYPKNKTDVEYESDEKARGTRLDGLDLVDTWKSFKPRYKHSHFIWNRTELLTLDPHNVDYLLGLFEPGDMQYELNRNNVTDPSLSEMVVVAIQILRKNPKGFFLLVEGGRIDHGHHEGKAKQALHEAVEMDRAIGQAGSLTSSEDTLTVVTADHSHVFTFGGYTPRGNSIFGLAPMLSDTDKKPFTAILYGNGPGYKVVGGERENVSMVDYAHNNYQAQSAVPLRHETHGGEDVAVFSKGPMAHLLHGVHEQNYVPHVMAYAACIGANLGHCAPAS

[8] = test system: proteoglycan subunits bound to type II collagen; conditions: Sepharose 4B-collagen column loaded with proteoglycan subunits; cited from earlier work
[9] = test system: spermidine synthase; conditions: neonatal rats, cited from earlier work
[10] = oral administration for 10 days or 4 months
[11] = rats, prolonged exposure for 10 days

Molecule: IL-1β: the inflammatory cytokine, known to be overproduced in OA joints
- FGFR3 expression ([1]; confluent HMSC, 6 days): increased
- VEGF expression ([1]; confluent HMSC, 6 days): increased
- chondrocyte maturation and cartilage matrix production (Alcian Blue staining) ([1]; confluent HMSC, 6 days): decreased
- expression of osteocalcin ([1]; confluent HMSC, 6 days): increased
- cytotoxicity to HMSC ([1]; high doses): cytotoxic

Molecule: NCCCCC[S+](CCN)CC1OC(n2cnc3c(N)ncnc32)C(O)C1O (centres unmarked) [AdoDATO, S-adenosyl-1,8-diamino-3-thiooctane]
- cell proliferation [2]: significant decrease
- cellular spermidine content [3]: drastic decrease
- putrescine content [3]: concomitant elevation

Molecule: FGF-2: fibroblast growth factor
- FGFR3 expression ([1]; confluent HMSC, 6 days): increased
- VEGF expression ([1]; confluent HMSC, 6 days): increased
- chondrocyte maturation and cartilage matrix production (Alcian Blue staining) ([1]; confluent HMSC, 6 days): decreased
- expression of osteocalcin ([1]; confluent HMSC, 6 days): increased
- expression of spermidine synthase gene [4]: up-regulation

Molecule: CC(C=NNC(=N)N)=NNC(=N)N [MGBG, methylglyoxal bis(guanylhydrazone), reference compound]
- fusion of macrophages [5]: concomitant inhibition
- enhanced synthesis of proteins induced by 1α,25(OH)2D3 [5]: greatly diminished

Molecule: IGF-1: growth factor that is beneficial for normal cartilage function and rehabilitation
- FGFR3 expression ([1]; confluent HMSC, 6 days): decreased
- chondrocyte maturation and cartilage matrix production (Alcian Blue staining) ([1]; confluent HMSC, 6 days): accelerates
- expression of collagen type II ([1]; confluent HMSC, 6 days): increased

Molecule: C[C@H]1CC[C@H](N)CC1 [4MCHA, trans-4-methylcyclohexylamine]
- spermidine in rat tissue [6, 10]: specific and marked decrease
- spermine in rat tissue [6, 10]: compensatory increase
- reduction in spermidine ([6]; rats, prolonged exposure for 10 days, variety of tissues): 70-80%
- effect on growth [6, 11]: no obvious effect
- spermine [6, 11]: compensatory increase
- total polyamine content [6, 11]: remained constant

Molecule: NCCCCNCCCN [spermidine]
- activity of alkaline phosphatase produced from cartilage [7]: increased
- effect on displacing proteoglycan subunits from collagen column [8]: strong capacity
- proteoglycan subunits removed from the column [8]: about 90%
- fusion of macrophages [5]: restored
- enhanced synthesis of proteins induced by 1α,25(OH)2D3 [5]: restored

Molecule: NCCCCN [putrescine, 1,4-diaminobutane]
- effect on displacing proteoglycan subunits from collagen column [8]: without effect

Molecule: C1CCC(NC2CCCCC2)CC1 [DCHA]
- levels of all three polyamines on continued treatment ([9]; continued DCHA treatment): returned to normal within two weeks
- brain spermidine ([9]; daily administration): dose-dependent depletion
- putrescine and spermine ([9]; daily administration): rise

Molecule: NCCCNCCCCNCCCN [spermine]
- activity of alkaline phosphatase produced from cartilage [7]: increased
- effect on displacing proteoglycan subunits from collagen column [8]: without effect
